Assay results as given in patent US5324725A, “7-fused 2-(piperazinoalkyl) indole derivatives, intermediates and compositions thereof” (Kali-Chemie Pharma GmbH, priority 1991, dated 1994).
Like-named read-outs stand apart in the source and are kept apart here.

Assays:
[1] = tested on: Histamine-induced anaphylactoid reactions; assay: Inhibition of anaphylactoid cutaneous reaction induced by histamine; format: in vivo, rat (Sprague-Dawley); conditions: Rattus norvegicus, 1 h; rats, 2 × 10^-5 mol/kg p.o., one hour before challenge; histamine intradermal
Experimental: (§1) 1. Determination of the inhibition of passive cutaneous anaphylaxis (P.C.A.) and of the anaphylactoid cutaneous reaction induced by histamine.
(§2) The determination of the inhibition of passive cutaneous anaphylaxis and the anaphylactoid cutaneous reaction induced by histamine was carried out as follows:
To determine the histamine-induced anaphylactoid skin reaction, the animals were injected intradermally in the flank opposite to the antiserum administration with 50 μl of a physiological saline solution containing 0.8 mg/ml of histamine directly before the i.v. injection of the solution containing the ovalbumin and the blue dye.
(§3) On the test days, the test substances were dissolved in distilled water which contained 1% by volume of dimethylformamide and 1% by volume of Tween®20 (polyoxyethylene(20) sorbitan monolaurate). One hour before the challenging ovalbumin administration, each animal received 2×10^-5 mol/kg of test substance administered orally in 0.5 ml of solution. A control group received only the solvent for comparison.
(§4) The oedematous anaphylactic (P.C.A.) and anaphylactoid (histamine-induced) reactions caused by the challenging i.v. ovalbumin injection, which are manifested by oedema formation, swelling and exudation of blue dye, were evaluated 30 minutes after challenge by the i.v. ovalbumin injection. This was done by visual determination of the extent to which the blue dye emerges at the sites of oedema formation. The percentage inhibition of anaphylactic and anaphylactoid reactions caused by the test substances was determined in comparison with the reactions of the control animals not treated with test substance with the aid of comparison scales.
(§5) The results obtained by the above test methods using compounds of the formula I are shown in the following Table A. The example numbers given for the compounds of formula I relate to the following preparation examples.

[2] = tested on: Passive cutaneous anaphylaxis (P.C.A.); assay: Inhibition of passive cutaneous anaphylaxis (P.C.A.); format: in vivo, rat (Sprague-Dawley); conditions: Rattus norvegicus, 1 h; rats, 2 × 10^-5 mol/kg p.o., one hour before ovalbumin challenge
Experimental: as §1
The P.C.A. reaction was carried out according to the methods described by Goose et al. (J.N. Immunology 16 (1969), 749) and by Martin et al (Arch. Pharmacol. 316 (1981), 186}.
The IgE-rich ovalbumin antiserum used in the test was obtained from immunized Brown-Norway rats. For immunization, the rats were given an i.p. injection of a mixture of 100 μg of ovalbumin with a Bordetella pertussis suspension (Vaxicoq®, Manufacturer: Institut Merieux, containing 5×10^9 organisms and 1.25 mg of Al(OH)3). After 20 days, the animals received a further i.p. injection of a solution of 10 μg of ovaIbumin in 0.5 ml of physiological saline solution for reimmunisation. After a further four days, the animals were bled, and the blood was centrifuged The antiserum obtained in this way was stored at -20° C. until use.
as §2
Sprague-Dawley rats having a body weight of 150-180 g were injected intradermally in one flank with 50 μl of a 1:75 dilution of the IgE-rich ovalbumin antiserum in physiological sodium chloride solution for passive sensitization to ovalbumin.
24 hours after sensitization a solution of 8.25 mg/kg of ovalbumin and 26.4 mg/kg of a blue dye (Evans' Blue) was administered i.v. to the rats according to Martin et al. to induce passive cutaneous anaphylaxis. The ovalbumin challenge caused a local anaphylactic reaction at the site at which the antiserum had been injected.
as §3, §4, §5

[3] = molecular target: T1, histamine (H1) receptor (Cavia porcellus, UniProt P31389); assay: Antihistamine (H1) effect: inhibition of histamine-induced contractions of isolated guinea-pig ileum in vitro; format: cell-based, guinea-pig (Dunkin Hartley); conditions: histamine 5 × 10^-6 mol/l, test substance 10^-6 mol/l
T1 construct: isolated smooth muscle of the guinea-pig ileum; from tissue; host or cells: isolated ileum segments of Dunkin Hartley guinea-pigs
T1 sequence (P31389 whole entry): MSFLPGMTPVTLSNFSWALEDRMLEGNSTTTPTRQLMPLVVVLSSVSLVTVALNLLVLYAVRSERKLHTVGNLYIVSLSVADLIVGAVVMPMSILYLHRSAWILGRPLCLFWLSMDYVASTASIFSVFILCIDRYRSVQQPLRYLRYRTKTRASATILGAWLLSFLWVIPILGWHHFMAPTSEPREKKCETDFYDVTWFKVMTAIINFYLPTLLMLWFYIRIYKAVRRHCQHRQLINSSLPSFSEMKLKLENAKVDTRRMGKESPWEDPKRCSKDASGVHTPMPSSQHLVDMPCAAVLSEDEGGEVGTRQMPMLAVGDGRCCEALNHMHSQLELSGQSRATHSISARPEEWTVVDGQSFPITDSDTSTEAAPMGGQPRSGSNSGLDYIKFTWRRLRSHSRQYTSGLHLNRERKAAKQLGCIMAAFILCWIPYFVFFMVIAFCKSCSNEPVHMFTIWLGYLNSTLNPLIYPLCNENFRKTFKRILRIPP
Experimental: 3. Investigation of the antihistamine (H1) effect based on histamine (H1) receptor antagonism in vitro.
To investigate the histamine (H1) receptor antagonism of the substances, the inhibitory effect thereof on histamine-induced contractions of the smooth musculature of isolated organ was determined in vitro. Isolated strips of organ from the ileum were used. In an organ bath of physiological saline solution, they react to addition of histamine by contracting. Addition of the compounds of the invention decreases this histamine-induced contraction of the smooth musculature of the ileum strips. The extent of decrease of the contraction is an indication of the antihistamine (H1) activity of the compounds. The investigation is carried out analogously to the method originally described by Magnus (Pflugers Arch. 102, 123 (1904)).
Experimental description of the determination of the inhibitory effect on the contraction induced by a 5×10^-6 molar histamine concentration on isolated smooth muscle of the guinea-pig ileum.
For the test, 1.5 cm long segments of the ileum from Dunkin Hartley guinea-pigs having a body weight of 300-500 g were employed. Each strip was placed in an organ bath of 10 ml of Krebs-Henseleit physiological saline solution and attached to a customary apparatus for isotonically measuring changes in length of the ileum strip (automated Celaster measuring apparatus) so that the tissue is under a tension of 1 g. The bath was kept at a pH of 7.4 and aerated with a mixture of 5% CO2 and 95% O2. After an equilibration phase, an isotonic contraction of the tissue was produced by adding histamine in a final concentration of 5×10^-6 mol/l and was washed out again after a contact time of 30 seconds. Only those tissues in which three reproducible contractions were obtained at 10 minute intervals were used in the subsequent test. The test substances were then added in a final concentration of 10^-6 mol/l, and after a contact time of 30 seconds histamine was again added up to a concentration of 5×10^-6 mol/l. The contractions which occurred were measured over the course of 30 seconds. The tissue was then washed several times over a period of 10 minutes. A contraction challenge was then induced again by addition of histamine. The contractions which occurred were again measured over 30 seconds. The difference between the amplitude of the contraction obtained by histamine addition alone and the amplitude of the contraction obtained in the presence of the test substance was determined and calculated as % inhibition.
The inhibitory effects on the contractions induced by histamine 30 seconds after administration of the test substance and on the contractions induced by addition of histamine 10 minutes afterward are given in the table.

[4] = tested on: P.A.F.-induced aggregation of platelets from rabbit blood; assay: Anti-P.A.F. effect in vitro: inhibition of P.A.F.-induced platelet aggregation; format: cell-based, rabbit (New Zealand hybrids); conditions: Oryctolagus cuniculus, Platelet, test substance concentration 10^-5 mol/l
Excerpt: 4. Determination of anti-P.A.F. effect in vitro.
Platelet-activating factor (P.A.F.) is a phospholipid mediator which has several effects. The activation of platelet aggregation leads to the induction of protracted broncho contractions and hyperreactivity of the airways.
The effects of the test substances on platelet aggregation induced by adding P.A.F. to a platelet suspension obtained from rabbit blood was investigated by the method described by Mikashima et al. (Jap. J. Pharmacol. 44 (1987) 387-391).
A suspension of platelets originating from rabbit blood was used which contained 4×10^9 platelets/ml in a modified Tyrode buffer solution adjusted to pH 7.4. Tyrode solution is an aqueous solution containing 136.9 mmol of NaCl, 2.68 mmol of KCl, 2.31 mmol of CaCl2, 1.0 mmol of MgCl2, 11.9 mmol of NaHCO3, 1.45 mmol of NaH2 PO4 and 5.55 mmol of glucose per liter. This solution was modified by adding 1.3 mM/l of CaCl2 and 2.5 g/l of gelatin. The platelets were obtained from 10 ml blood samples from each of three rabbits (New Zealand hybrids, body weight 3-4 kg). For this, the blood samples were treated with ethylenediaminetetraacetic acid and washed by the method of Artley et al. (Brit. J. Hamatol. 19 (1970), 7-17). A platelet-rich plasma was then initially separated by centrifugation (20 minutes at 400×g). The platelets were separated from the plasma by centrifuging again for 15 minutes at 1400×g. After centrifuging, the platelets remaining as a sediment were resuspended in a calcium-free Tyrode buffer solution. 0.4 mmol of lysine acetylsalicylate were then added and after 15 minutes the blood platelets were sedimented again. The sediment was resuspended in the abovementioned modified Tyrode buffer solution, and the number of platelets in the resulting suspension was adjusted to the desired content.
A 40×10^-9 molar P.A.F. solution was used as the reagent. This solution was prepared from a 1.8×10^-3 molar stock solution in chloroform. For this, a 10μl sample of the stock solution was evaporated to dryness and redissolved in 180 μl of the modified Tyrode solution, to which 0.25% of dilapidated bovine serum albumin had been added. 10^-5 molar working solutions were then prepared from this and stored frozen. Samples of these solutions were appropriately diluted for the tests.
To carry out the tests, 50 μl of the platelet solution and 10 μl of a 40×10^-5 molar solution of the compound to be investigated were added to 330 μl of the modified Tyrode buffer solution with stirring (1000 rpm) in an aggregation tube provided with a small magnetic stirrer. This corresponds to a final test substance concentration of 10^-5 mol/l. After a preincubation time of 90seconds, 10 μl of the P.A.F. preparation were added. The aggregation occurring in the aggregation tubes was measured for 4-5 minutes using a computerized aggregometer.
The aggregation occurring in the test tubes containing only platelet suspension was rated as 0%. The aggregation occurring in test tubes containing platelet suspension and P.A.F. preparation was rated as 100%. The aggregation which still occurred in the presence of the test substances (i.e. during inhibition of the P.A.F.-induced platelet aggregation increase) was measured, and the resulting aggregation inhibition is calculated from this in %.

[5] = after 30 sec., read-out: in vitro (H1) receptor antagonism % inhibitory effect on histamine-induced contractions of the Ileum, after 30 sec.
[6] = after 10 min. (after washing), read-out: in vitro (H1) receptor antagonism % inhibitory effect on histamine-induced contractions of the Ileum, after 10 min.

Row | SMILES | inhibition in vivo at 20 µmol/kg [1] [%] | inhibition in vivo at 20 µmol/kg [2] [%] | inhibition at 1 µM [3, 5] [%] | inhibition at 1 µM [3, 6] [%] | inhibition at 10 µM [4] [%]
1 | Cc1ccnc(N2CCN(CCCc3c(C)n4c5c(cccc35)CCC4)CC2)c1 [Example 17, 5,6-dihydro-2-methyl-1-{3-[4-(4-methylpyridin-2-yl)piperazin-1-yl]-propyl}-4H-pyrrolo[3,2,1-ij]quinoline] | 25 | 45 | – | – | –
2 | Cc1ccnc(N2CCN(CCc3c(C)n4c5c(cccc35)S(=O)(=O)CC4)CC2)c1 [Example 28b, 2,3-dihydro-5-methyl-6-{2-[4-(4-methylpyridin-2-yl)-piperazin-1yl]ethyl}-pyrrolo[1,2,3-de]-1,4-benzothiazine-1,1-dioxide] | 85 | 100 | 6 | 14 | –
3 | Cc1ccnc(N2CCN(CCc3c(C)n4c5c(cccc35)CCC4CO)CC2)c1 (stereo not shown) [Example 18, 5,6-Dihydro-4-hydroxymethyl-2-methyl-1-{2-[4-(4-methylpyridin-2-yl)piperazin-1-yl]ethyl}-4H-pyrrolo[3,2,1-ij]-quinoline] | 80 | 90 | 29 | 72 | –
4 | Cc1ccnc(N2CCN(CCc3c(-c4ccc(Cl)cc4)n4c5c(cccc35)CCC4)CC2)c1 [Example 46] | 25 | 35 | – | – | 91
5 | COc1cccc(N2CCN(CCc3c(C)n4c5c(cccc35)CCC4)CC2)c1 [Example 48] | 35 | 25 | 35 | 48 | –
6 | Cc1cccc(N2CCN(CCc3c(C)n4c5c(cccc35)CCC4)CC2)n1 [Example 50] | 50 | 60 | 24 | 50 | –
7 | Cc1ccnc(N2CCN(CCc3c(C)n4c5c(cccc35)[S+]([O-])CC4)CC2)c1 (stereo not shown) [Example 28a, 2,3-Dihydro-5-methyl-6-{2-[4-(4-methylpyridin-2-yl)-piperazin-1-yl]ethyl}-pyrrolo[1,2,3-de]-1,4-benzothiazine-1-oxide] | 90 | 100 | 25 | 24 | –
